The source of these data is patent US10509041B2, “Glucose derivative, and cell imaging method and imaging agent using said derivative” (HIROSAKI UNIVERSITY, priority 2014, dated 2019).

“And” between values parts separate entries of the source, which are not always exact repeats. Identical values can stand only once.

The subject of assay [1] is mouse insulinoma cells (MIN6). As to the kind of experiment: Increase in fluorescence intensity (uptake) after administration of fluorescent glucose derivative to MIN6 cells, influence of cytochalasin B (CB) or phloretin (PHT), fluorescence microplate reader. It is filed as cell-based. Particulars: 2-NBDG 200 μM, 5 minutes; CB 10 μM; MIN6 13 days of culture; average, two independent experiments. How it is done:
Increase in fluorescence intensity caused by the administration of CDG, and the influence of a glucose transporter (GLUT) inhibitor CB thereon were confirmed by targeting MIN6 cells.
A 96-well clear-bottom plate having wells of 8 rows (A to H) and 12 columns (1 to 12) (μClear-PLATE, Greiner Bio-One, BLACK) was used in measurement. A culture solution containing MIN6 cells suspended at a density of 60×10^4 cells/mL was added dropwise at 10 μL/well to the central portion of the well, and then, the plate was left standing for 40 minutes in an incubator for fixation. The cells were cultured by the addition of a culture solution at 200 μL/well (6000 cells/well). For layout, the cells were seeded to wells B to H on the third column and wells A to G on the fifth column. Medium replacement was performed by replacing half the amount with a fresh one once every two days at 0 to 4 DIV (days in vitro) and every day at 5 DIV or later. […]
CDG and 2-NBDG were each independently administered to the wells on the third and fifth columns using an 8-channel pipette such that these derivatives were alternately placed on the same plate. Before the administration, the autofluorescence of each well was measured in advance using a fluorescence microplate reader (Flex Station, Molecular Devices, LLC). […] The measurement was conducted at Bottom Read, Averaging 3, and Photomultiplier sensitivity high. […]

Assay [2] deals with mouse insulinoma cells (MIN6). The assay is described as above. The format is cell-based. Particulars: 2-NBDG 200 μM, 5 minutes; PHT 150 μM; MIN6 13 days of culture; average, two independent experiments.

As to `O=[N+]([O-])c1ccc(N[C@H]2C(O)O[C@H](CO)[C@@H](O)[C@@H]2O)c2nonc12` (stereo partly drawn) [Compound 2-NBDG, 2-[N-(7-nitrobenz-2-oxa-1,3-diazol-4-yl)amino]-2-deoxy-D-glucose, reference compound], the “fluorescence intensity in the presence of CB relative to the absence of CB” value in assay [1] was 30.8% and 36.4%. Further, in assay [2], the “fluorescence intensity in the presence of PHT relative to the absence of PHT” value was 18.6% and 15.7%.
